The subject of one data set is sunflower cotyledons. Description: Assessment of selection agents (GUS assay of transformed cotyledons and shoots). The following applies: glyphosate 0.05->0.1->0.05 mM, paromomycin 25->50->25 mg/L, kanamycin 50 mg/L; for GUS Positive/Total cotyledons assayed: destructive GUS assays at different stages. Format: cell-based, Helianthus annuus L. As for the experimental part: After the post-transformation delay, the transformed cotyledons were transferred through a series of selection cultures containing low-high-low concentrations of selective agent. The cotyledons were first placed in Selection media (see Table 1) containing 0.05 mM glyphosate for about 10 days. Plates were incubated at 23° C., low light, and 18/6 hour photoperiod. The cotyledons were then transferred to a second selection culture containing Selection media +0.1 mM glyphosate for about 2 additional weeks. Finally, the cotyledons were placed in a third selection culture containing Selection media +0.05 mM glyphosate for about 7 to 14 days. In addition to glyphosate, several other selection agents were tested (Table 4).

A further data set deals with HA300B (Control). The experiment in a line: Glyphosate spray in greenhouse, non-transgenic control. Format: in vivo, sunflower. The settings on record: for Tolerance to glyphosate spray: greenhouse, about v6 to v10 leaf stage. As for the experimental part: (§1) Transgenic R1 sunflower plants (from strain HA300B), transformed with pWRG4750, were transformed and regenerated as described in Examples 5-9 and tested in greenhouse. About 5000 R2 seeds of two independent transformants, SFB193 and SFB216, were planted. […] […] The sunflower plants were assessed for resistance to glyphosate.
(§2) In addition, the glyphosate-treated transgenic plants were scored for normal head development.

The next data set deals with SFB193. Description: Glyphosate spray in greenhouse, transgenic sunflower. It counts as in vivo. The protocol:
as §1, §2

The subject of another data set is SFB216. The description is as above. Format: in vivo. The protocol:
Transgenic R1 sunflower plants (from strain HA300B), transformed with pWRG4750, were transformed and regenerated as described in Examples 5-9 and tested in greenhouse. About 5000 R2 seeds of two independent transformants, SFB193 and SFB216, were planted. Some plants were sprayed with Glyphosate at V-4 and V-8 leaf stages at 0 and 32 oz/acre level. […] The sunflower plants were assessed for resistance to glyphosate.
as §2

The test system of the next data set is SFB193 and SFB216. Description: Glyphosate spray of plants from R2 seeds at V4 and V8 stages. Format: in vivo, sunflower. The settings on record: 32 and 64 oz/acre; V4 and V8 stages of plant development. As for the experimental part:
Transgenic R1 sunflower plants (from strain HA300B), transformed with pWRG4750, were transformed and regenerated as described in Examples 5-9 and tested in greenhouse. About 5000 R2 seeds of two independent transformants, SFB193 and SFB216, were planted. Some plants were sprayed with Glyphosate at V-4 and V-8 leaf stages at 0 and 32 oz/acre level. For the other plants, glyphosate treatment rates, at V4 stage were 0-, 32-, or 64 oz./acre. The sunflower plants were assessed for resistance to glyphosate.

Three compounds from patent US20020157138A1, “Transformation and regeneration of sunflower cotyledons” (priority 2001, published 2002) can be followed below.

Molecules are shown by their SMILES.

As to `NC[C@H]1O[C@H](O[C@H]2[C@H](O)[C@@H](O[C@H]3O[C@H](CO)[C@@H](O)[C@H](N)[C@H]3O)[C@H](N)C[C@@H]2N)[C@H](O)[C@@H](O)[C@@H]1O` [Kanamycin], in the data set with sunflower cotyledons, the “GUS Positive/Total cotyledons assayed” value is given as 59/64 and the “GUS Positive Shoots” value was determined as 16.

For `NC[C@@H]1O[C@H](O[C@H]2[C@@H](O)[C@H](O[C@@H]3[C@@H](O)[C@H](N)C[C@H](N)[C@H]3O[C@H]3O[C@H](CO)[C@@H](O)[C@H](O)[C@H]3N)O[C@@H]2CO)[C@H](N)[C@@H](O)[C@@H]1O` [Paromomycin], in the data set with sunflower cotyledons, the “GUS Positive/Total cotyledons assayed” value was 15/30 and the “GUS Positive Shoots” value stood at 7.

With `O=C(O)CNCP(=O)(O)O` [Glyphosate], in the data set with sunflower cotyledons, the “GUS Positive/Total cotyledons assayed” value is reported as 63/80. Also, the “GUS Positive Shoots” value with sunflower cotyledons is 7. Besides, the “Normal Sunflower Heads After Treatment With Glyphosate” value with HA300B (Control) (32 oz./acre) worked out at 0%; in the data set on HA300B (Control) (64 oz./acre), 0%; in the data set on HA300B (Control) (96 oz./acre) it was 0%; with HA300B (Control) (128 oz./acre) it was 0%; in the data set on SFB193 (32 oz./acre), 56%; with SFB193 (64 oz./acre), 79%. In addition, the “Normal Sunflower Heads After Treatment With Glyphosate” value in the data set with SFB193 (96 oz./acre) is 50%; in the data set on SFB193 (128 oz./acre), 25%; in the data set on SFB216 (32 oz./acre) it was 70%; in the data set on SFB216 (64 oz./acre) it was 32%; in the data set on SFB216 (96 oz./acre), 14%; in the data set with SFB216 (128 oz./acre), 0%. Besides, the “Tolerance to glyphosate spray” value in the data set with HA300B (Control) (32 oz./acre) and in the data set on HA300B (Control) (64 oz./acre) was “No Tolerance” each time. In addition, the “Vegetative tolerance to glyphosate spray” value in the data set with SFB193 and SFB216 is recorded as “excellent vegetative tolerance”.
